Measurements as given in patent US20230339981A1, “KRAS G12D MODULATING COMPOUNDS” (priority 2022, published 2023).

Assays:
[1] = target: GDP-loaded KRAS G12D (Homo sapiens (Human), UniProt P01116, G12D); test: KRAS G12D (GDP) biochemical assay (TR-FRET probe displacement); assay type: binding; conditions: 2 hours
Method in brief: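 TR-FRET probe displacement: 1:3 DMSO serial dilutions pre-incubated 30 min with GDP-bound KRAS G12D, followed by Eu-streptavidin/probe for 2 h at room temperature (Hepes pH 7.4, NaCl, MgCl2, Tween-20 buffer). IC50 defined as concentration halving TR-FRET ratio, from sigmoidal dose-response fit.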

[2] = tested on: GP2D (KRAS G12D) cells; test: 2D cell viability assay (CellTiter-Glo); assay type: cell-based; conditions: GP2d, 96 h, 4 days
Method in brief: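 Viability was read by CellTiter-Glo after 4 days at 37 °C of 2D culture of KRAS G12D GP2D cells (1000/well, RPMI, 10% FBS) on pre-spotted threefold compound dilutions. EC50 was fitted with a sigmoidal dose-response model as the point of half-maximal luminescence loss.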

[3] = tested on: AsPC-1 (KRAS G12D) cells; test: 3D cell viability assay (spheroids, CellTiter-Glo 3D); assay type: cell-based; conditions: Homo sapiens, ASPC1, 96 h, AsPC-1 cells, 3D spheroids, 4 days
Method in brief: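 AsPC-1 cells (1000/well) in DMEM with 10% FBS formed spheroids over 3 days at 37 °C in ultra-low attachment plates, then were treated with 1:3 serial dilutions for 4 days. Viability read by CellTiter-Glo 3D luminescence; EC50 as concentration giving 50% signal decrease, sigmoidal fit.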

GDP-loaded KRAS G12D, sequence (P01116-2 other isoform, or with tags, fused parts or gaps G12D): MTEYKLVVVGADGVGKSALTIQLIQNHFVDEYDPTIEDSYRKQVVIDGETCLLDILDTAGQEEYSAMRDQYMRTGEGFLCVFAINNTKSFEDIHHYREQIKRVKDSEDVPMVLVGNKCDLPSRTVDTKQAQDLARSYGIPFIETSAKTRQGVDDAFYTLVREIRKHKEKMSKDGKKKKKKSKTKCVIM

| Structure (SMILES) | IC50 [1] | EC50 [2] | EC50 [3] |
| --- | --- | --- | --- |
| C#Cc1c(F)ccc2cccc(-c3nc4c5c(nc(OC[C@@]67CCCN6C[C@H](F)C7)nc5c3F)N3C[C@H]5CC[C@H](N5)[C@H]3C[C@@H]4F)c12 [Example 172, (4S,5aR,6S,9R)-2-(8-ethynyl-7-fluoronaphthalen-1-yl)-1,4-difluoro-12-(((2R,7aS)-2-fluorotetrahydro-1H-pyrrolizin-7a(5H)-yl)methoxy)-4,5,5a,6,7,8,9,10-octahydro-3,10a,11,13,14-pentaaza-6,9-methanonaphtho[1,8-ab]heptalene] | 3.5 nM | 65.3 nM | 480 nM |
| C#Cc1c(F)ccc2cc(O)cc(-c3nc4c5c(nc(OC[C@@]67CCCN6C[C@H](F)C7)nc5c3F)N3C[C@@]5(C)CC[C@H](N5)[C@H]3CC4)c12 [Example 190, 5-ethynyl-6-fluoro-4-((5aR,6S,9R)-1-fluoro-12-(((2R,7aS)-2-fluorotetrahydro-1H-pyrrolizin-7a(5H)-yl)methoxy)-9-methyl-4,5,5a,6,7,8,9,10-octahydro-3,10a,11,13,14-pentaaza-6,9-methanonaphtho[1,8-ab]heptalen-2-yl)naphthalen-2-ol] | 0.1 nM | 1.5 nM | 7.9 nM |
| C#Cc1c(F)ccc2cc(O)cc(-c3nc4c5c(nc(OCC6(CN7CCC[Si](C)(C)CC7)CC6)nc5c3F)N3C[C@H]5CC[C@H](N5)[C@H]3CC4)c12 [Example 78, 4-((5aR,6S,9R)-12-((1-((4,4-dimethyl-1,4-azasilepan-1-yl)methyl)cyclopropyl)methoxy)-1-fluoro-4,5,5a,6,7,8,9,10-octahydro-3,10a,11,13,14-pentaaza-6,9-methanonaphtho[1,8-ab]heptalen-2-yl)-5-ethynyl-6-fluoronaphthalen-2-ol] | 0.2 nM | 3.9 nM | 15 nM |
| C#Cc1c(F)ccc2cc(O)cc(-c3nc4c5c(nc(OC[C@@]67CCCN6C[C@H](F)C7)nc5c3F)N3C[C@H]5CC[C@H](N5)[C@H]3CC4(F)F)c12 [Example 97, 5-ethynyl-6-fluoro-4-((5aR,6S,9R)-1,4,4-trifluoro-12-(((2R,7aS)-2-fluorotetrahydro-1H-pyrrolizin-7a(5H)-yl)methoxy)-4,5,5a,6,7,8,9,10-octahydro-3,10a,11,13,14-pentaaza-6,9-methanonaphtho[1,8-ab]heptalen-2-yl)naphthalen-2-ol] | 0.2 nM | 7.7 nM | 55 nM |
| C#Cc1c(F)ccc2cccc(-c3nc4c5c(nc(OC[C@@]67CCCN6C[C@H](F)C7)nc5c3F)N3C[C@H]5CC[C@H](N5)[C@H]3C[C@H]4F)c12 [Example 173, (4R,5aR,6S,9R)-2-(8-ethynyl-7-fluoronaphthalen-1-yl)-1,4-difluoro-12-(((2R,7aS)-2-fluorotetrahydro-1H-pyrrolizin-7a(5H)-yl)methoxy)-4,5,5a,6,7,8,9,10-octahydro-3,10a,11,13,14-pentaaza-6,9-methanonaphtho[1,8-ab]heptalene] | < 0.1 nM | 4.2 nM | 100 nM |
| C#Cc1c(F)ccc2cc(O)cc(-c3nc4c5c(nc(OC[C@@]67CCCN6[C@H](COc6cccc(S(F)(F)(F)(F)F)c6)CC7)nc5c3F)N3C[C@H]5CC[C@H](N5)[C@H]3CC4)c12 [Example 104, 5-ethynyl-6-fluoro-4-((5aR,6S,9R)-1-fluoro-12-(((3S,7aS)-3-((3-(pentafluoro-λ6-sulfaneyl)phenoxy)methyl)tetrahydro-1H-pyrrolizin-7a(5H)-yl)methoxy)-4,5,5a,6,7,8,9,10-octahydro-3,10a,11,13,14-pentaaza-6,9-methanonaphtho[1,8-ab]heptalen-2-yl)naphthalen-2-ol] | 0.8 nM | 8.7 nM | 53 nM |
| Oc1cc(-c2nc3c4c(nc(OCC5(CN6CCC(OC(F)(F)F)CC6)CC5)nc4c2F)N2C[C@H]4CC[C@H](N4)[C@H]2CC3)c2c(OC(F)(F)F)c(F)ccc2c1 [Example 102, 6-fluoro-4-((5aR,6S,9R)-1-fluoro-12-((1-((4-(trifluoromethoxy)piperidin-1-yl)methyl)cyclopropyl)methoxy)-4,5,5a,6,7,8,9,10-octahydro-3,10a,11,13,14-pentaaza-6,9-methanonaphtho[1,8-ab]heptalen-2-yl)-5-(trifluoromethoxy)naphthalen-2-ol] | 3.3 nM | 39.5 nM | 680 nM |
| C#Cc1c(F)ccc2cc(O)cc(-c3nc4c5c(nc(OCC6(CN7CCCOCC7)CC6)nc5c3F)N3C[C@H]5CC[C@H](N5)[C@H]3CO4)c12 [Example 35, 4-((5aS,6S,9R)-12-((1-((1,4-oxazepan-4-yl)methyl)cyclopropyl)methoxy)-1-fluoro-5a,6,7,8,9,10-hexahydro-5H-4-oxa-3,10a,11,13,14-pentaaza-6,9-methanonaphtho[1,8-ab]heptalen-2-yl)-5-ethynyl-6-fluoronaphthalen-2-ol] | 0.3 nM | 6 nM | 17 nM |
| CCc1c(F)ccc2cc(O)cc(-c3cc4c5c(nc(OC[C@@]67CCCN6C[C@H](F)C7)nc5c3F)N3C[C@H]5CC[C@H](N5)[C@H]3CC4)c12 [Example 128, 5-ethyl-6-fluoro-4-((1S,4R,14aR)-10-fluoro-8-(((2R,7aS)-2-fluorotetrahydro-1H-pyrrolizin-7a(5H)-yl)methoxy)-1,2,3,4,5,13,14,14a-octahydro-1,4-epiminoazepino[1′,2′:1,7]azepino[2,3,4-de]quinazolin-11-yl)naphthalen-2-ol] | 0.2 nM | 4.1 nM | 59 nM |
| C#Cc1c(F)ccc2cccc(-c3nc4c5c(nc(OC[C@@]67CCCN6C[C@H](F)C7)nc5c3F)N3C[C@H]5CC[C@H](N5)[C@@H]3[C@@H](C)[C@H]4C)c12 [Example 86, (4R,5S,5aS,6S,9R)-2-(8-ethynyl-7-fluoronaphthalen-1-yl)-1-fluoro-12-(((2R,7aS)-2-fluorotetrahydro-1H-pyrrolizin-7a(5H)-yl)methoxy)-4,5-dimethyl-4,5,5a,6,7,8,9,10-octahydro-3,10a,11,13,14-pentaaza-6,9-methanonaphtho[1,8-ab]heptalene] | 0.5 nM | 14.4 nM | 64 nM |
| C#Cc1c(F)ccc2cccc(-c3nc4c5c(nc(OC[C@@]67CCCN6[C@H](COC(C)(C(F)(F)F)C(F)(F)F)CC7)nc5c3F)N3C[C@H]5CC[C@H](N5)[C@H]3CCC4)c12 [Example 115, (6aR,7S,10R)-2-(8-ethynyl-7-fluoronaphthalen-1-yl)-1-fluoro-13-(((3S,7aS)-3-(((1,1,1,3,3,3-hexafluoro-2-methylpropan-2-yl)oxy)methyl)tetrahydro-1H-pyrrolizin-7a(5H)-yl)methoxy)-5,6,6a,7,8,9,10,11-octahydro-4H-3,11a,12,14,15-pentaaza-7,10-methanocyclohepta[4,5]cycloocta[1,2,3-de]naphthalene] | 0.1 nM | 11.5 nM | 100 nM |
| C#Cc1c(F)ccc2cccc(-c3nc4c5c(nc(OC[C@@]67CCCN6C[C@H](F)C7)nc5c3F)N3C[C@H]5CC[C@H](N5)[C@H]3CCC4)c12 [Example 76, (6aR,7S,10R)-2-(8-ethynyl-7-fluoronaphthalen-1-yl)-1-fluoro-13-(((2R,7aS)-2-fluorotetrahydro-1H-pyrrolizin-7a(5H)-yl)methoxy)-5,6,6a,7,8,9,10,11-octahydro-4H-3,11a,12,14,15-pentaaza-7,10-methanocyclohepta[4,5]cycloocta[1,2,3-de]naphthalene] | 0.1 nM | 4 nM | 27 nM |
| C#Cc1c(F)ccc2cc(O)cc(-c3nc4c5c(nc(OC[C@@]67CCCN6C[C@@H](OC(C(F)(F)F)(C(F)(F)F)C(F)(F)F)C7)nc5c3F)N3C[C@H]5CC[C@H](N5)[C@H]3CC4)c12 (stereo in doubt) [Example 134, 5-ethynyl-6-fluoro-4-((5aR,6S,9R)-1-fluoro-12-((cis-2-((1,1,1,3,3,3-hexafluoro-2-(trifluoromethyl)propan-2-yl)oxy)tetrahydro-1H-pyrrolizin-7a(5H)-yl)methoxy)-4,5,5a,6,7,8,9,10-octahydro-3,10a,11,13,14-pentaaza-6,9-methanonaphtho[1,8-ab]heptalen-2-yl)naphthalen-2-ol] | 0.5 nM | 2.2 nM | 31 nM |
| Oc1cc(-c2nc3c4c(nc(OC[C@@]56CCCN5C[C@H](F)C6)nc4c2F)N2C[C@H]4CC[C@H](N4)[C@H]2CO3)c2c(Cl)c(F)ccc2c1 [Example 9, 5-chloro-6-fluoro-4-((5aS,6S,9R)-1-fluoro-12-(((2R,7aS)-2-fluorotetrahydro-1H-pyrrolizin-7a(5H)-yl)methoxy)-5a,6,7,8,9,10-hexahydro-5H-4-oxa-3,10a,11,13,14-pentaaza-6,9-methanonaphtho[1,8-ab]heptalen-2-yl)naphthalen-2-ol] | 0.5 nM | 20 nM | 77 nM |
| Oc1cc(-c2nc3c4c(nc(OC[C@@]56CCCN5C[C@H](F)C6)nc4c2F)N2C[C@H]4CC[C@H](N4)[C@H]2CC3)c2c(F)c(Cl)ccc2c1 [Example 40, 6-chloro-5-fluoro-4-((5aR,6S,9R)-1-fluoro-12-(((2R,7aS)-2-fluorotetrahydro-1H-pyrrolizin-7a(5H)-yl)methoxy)-4,5,5a,6,7,8,9,10-octahydro-3,10a,11,13,14-pentaaza-6,9-methanonaphtho[1,8-ab]heptalen-2-yl)naphthalen-2-ol] | 2 nM | 19 nM | 74 nM |
